Measurements as given in ChEMBL document CHEMBL1201862, “PubChem BioAssay data set” (2004).
Calls of active or inactive are those of the source.

Legend:
[1] = target: T1, Ubiquitin-conjugating enzyme E2 N (Homo sapiens, UniProt P61088); type: functional;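 also: Dose-response confirmation in a TR-FRET assay detecting UBC13-driven polyubiquitin chain formation, inhibition measured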
T1 sequence (P61088 whole entry): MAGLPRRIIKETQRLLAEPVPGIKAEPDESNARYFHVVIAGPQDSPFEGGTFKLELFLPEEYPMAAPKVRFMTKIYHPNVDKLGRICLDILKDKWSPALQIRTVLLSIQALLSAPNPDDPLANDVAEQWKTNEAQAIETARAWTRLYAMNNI

[2] = system: BJ; assay: cells; type: functional, cell-based; details: Homo sapiens
[3] = system: BJ; assay: cytotoxicity toward BJ-TERT fibroblasts, dose response, cell-based, RAS-independent, luminescence (AID 1933); type: functional; details: Homo sapiens
[4] = cytotoxicity toward DRD oncogenic fibroblasts, dose response, cell-based, non-viral oncogenic, luminescence (AID 1934); type: functional; details: Homo sapiens
[5] = inhibitors of firefly luciferase expression or activity, dose response, H4 neuroglioma cells, luminescence (AID 1990); type: functional, cell-based
[6] = system: BJ; assay: cytotoxicity toward Ras-transformed BJeLR fibroblasts, dose response, cell-based, alamar blue fluorescence, cherrypicked samples (AID 2631); type: functional; details: Homo sapiens;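 also: confirmatory dose-response assay in RAS-dependent BJ fibroblasts engineered with TERT, LT and ST, with cytotoxicity read by fluorescence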
[7] = system: BJ; assay: cytotoxicity toward BJ-TERT-LT-ST fibroblasts, dose response, cell-based, RAS-independent, luminescence (AID 1935); type: functional; details: Homo sapiens;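 also: BJ fibroblasts immortalized with TERT plus LT and ST oncogenes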
[8] = Shn3 3'UTR reporter inhibitors, dose response, cell-based, Clone20 osteoblasts, firefly luciferase, cherry-picked (AID 624132); type: functional;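 also: firefly luciferase luminescence from reporter carrying the Shn3 3'UTR in osteoblasts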
[9] = Luminescence Cell-Based Dose Response HTS to Identify Inhibitors of 5'UTR Stem-Loop Driven Prion Protein mRNA Translation in H4 Neuroglioblastoma Cells. [Related pubchem assays: 1827 (Project Summary), 1813 (Primary HTS)]; type: functional
[10] = inhibitors of SNCA 5'UTR-driven reporter translation, confirmation, H4 neuroglioma cells, luminescence (AID 1988); type: functional, cell-based
[11] = inhibitors of clade B AD8 Env fusion, dose response, cell-based, cherry-pick (AID 652062); type: functional;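 also: luciferase signal from cell-cell fusion driven by HIV-1 clade B AD8 Env; potency is for inhibitors of fusion seen as a drop in luminescence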
[12] = target: Voltage-dependent T-type calcium channel subunit alpha-1H (Homo sapiens, UniProt O95180); type: functional;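 also: channel activity triggered by adding a high calcium stimulation buffer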
Sequence of Voltage-dependent T-type calcium channel subunit alpha-1H (O95180 whole entry, the tested form may be a part): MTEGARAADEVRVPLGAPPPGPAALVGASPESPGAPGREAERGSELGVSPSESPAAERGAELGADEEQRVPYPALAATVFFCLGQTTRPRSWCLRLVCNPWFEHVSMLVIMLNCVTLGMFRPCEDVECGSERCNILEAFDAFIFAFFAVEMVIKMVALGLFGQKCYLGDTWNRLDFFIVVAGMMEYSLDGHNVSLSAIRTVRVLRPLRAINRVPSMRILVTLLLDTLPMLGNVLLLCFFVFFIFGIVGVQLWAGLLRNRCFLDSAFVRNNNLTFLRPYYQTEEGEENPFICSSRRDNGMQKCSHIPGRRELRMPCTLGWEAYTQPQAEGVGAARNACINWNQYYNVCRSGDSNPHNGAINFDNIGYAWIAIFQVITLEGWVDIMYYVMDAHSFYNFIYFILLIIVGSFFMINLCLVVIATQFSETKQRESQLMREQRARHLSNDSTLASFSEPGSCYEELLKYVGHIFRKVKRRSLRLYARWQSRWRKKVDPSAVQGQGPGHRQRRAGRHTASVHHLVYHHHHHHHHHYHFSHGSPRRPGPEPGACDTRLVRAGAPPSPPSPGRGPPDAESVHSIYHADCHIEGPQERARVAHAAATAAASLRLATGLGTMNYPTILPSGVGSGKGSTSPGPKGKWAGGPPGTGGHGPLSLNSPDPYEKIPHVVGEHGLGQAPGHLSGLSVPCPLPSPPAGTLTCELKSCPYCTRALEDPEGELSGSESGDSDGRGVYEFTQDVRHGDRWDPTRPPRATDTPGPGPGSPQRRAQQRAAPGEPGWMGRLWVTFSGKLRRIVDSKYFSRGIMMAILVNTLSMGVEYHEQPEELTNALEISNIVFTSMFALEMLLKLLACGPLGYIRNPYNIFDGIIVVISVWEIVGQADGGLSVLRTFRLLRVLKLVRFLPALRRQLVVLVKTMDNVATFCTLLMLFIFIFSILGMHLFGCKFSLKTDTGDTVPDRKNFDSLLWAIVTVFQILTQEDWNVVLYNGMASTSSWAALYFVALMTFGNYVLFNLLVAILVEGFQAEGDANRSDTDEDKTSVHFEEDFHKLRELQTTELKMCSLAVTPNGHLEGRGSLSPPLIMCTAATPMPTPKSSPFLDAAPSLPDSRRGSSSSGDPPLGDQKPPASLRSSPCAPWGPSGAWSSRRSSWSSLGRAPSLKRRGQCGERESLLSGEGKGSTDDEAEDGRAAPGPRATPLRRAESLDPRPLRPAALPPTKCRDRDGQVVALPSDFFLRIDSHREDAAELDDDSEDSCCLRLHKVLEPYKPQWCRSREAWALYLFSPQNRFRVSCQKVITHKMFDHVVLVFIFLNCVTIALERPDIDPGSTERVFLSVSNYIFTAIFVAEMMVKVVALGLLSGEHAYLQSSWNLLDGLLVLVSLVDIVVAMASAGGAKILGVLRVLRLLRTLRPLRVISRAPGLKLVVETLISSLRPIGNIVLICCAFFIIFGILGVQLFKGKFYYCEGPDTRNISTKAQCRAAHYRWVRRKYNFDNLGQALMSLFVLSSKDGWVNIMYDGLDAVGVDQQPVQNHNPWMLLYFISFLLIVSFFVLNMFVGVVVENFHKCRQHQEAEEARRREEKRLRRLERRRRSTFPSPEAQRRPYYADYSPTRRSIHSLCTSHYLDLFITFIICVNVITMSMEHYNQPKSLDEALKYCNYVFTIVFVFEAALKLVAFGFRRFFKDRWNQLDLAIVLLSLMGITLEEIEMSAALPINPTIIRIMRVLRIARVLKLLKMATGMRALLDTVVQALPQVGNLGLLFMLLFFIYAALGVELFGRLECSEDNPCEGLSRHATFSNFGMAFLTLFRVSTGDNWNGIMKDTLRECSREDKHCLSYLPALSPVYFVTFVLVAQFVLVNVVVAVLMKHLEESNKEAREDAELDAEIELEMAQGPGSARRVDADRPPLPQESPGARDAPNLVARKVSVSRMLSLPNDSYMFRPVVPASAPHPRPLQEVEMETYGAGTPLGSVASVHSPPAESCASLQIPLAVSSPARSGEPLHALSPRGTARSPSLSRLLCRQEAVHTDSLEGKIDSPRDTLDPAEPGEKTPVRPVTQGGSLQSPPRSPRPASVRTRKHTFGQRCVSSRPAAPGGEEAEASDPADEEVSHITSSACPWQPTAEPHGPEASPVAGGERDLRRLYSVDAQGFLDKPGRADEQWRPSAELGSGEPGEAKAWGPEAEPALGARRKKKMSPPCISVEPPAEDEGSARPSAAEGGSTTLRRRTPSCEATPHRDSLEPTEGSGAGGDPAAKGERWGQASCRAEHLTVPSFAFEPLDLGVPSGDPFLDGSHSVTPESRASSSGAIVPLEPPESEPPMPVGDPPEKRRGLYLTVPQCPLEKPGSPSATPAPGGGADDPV

[13] = ZM109 Env clade C HIV-1 fusion inhibitors, dose response, HeLa effector, CEM target cells, luciferase, cherry-pick (AID 652058); type: functional, cell-based
[14] = inhibitors of HIV Env-driven cell fusion, dose response, cherry-pick (AID 652057); type: functional, cell-based
[15] = HepG2 cell cytotoxicity, dose response, cytotoxicity control for Shn3 inhibitor project, CellTiter-Glo, cherry-picked (AID 624134); type: functional, cell-based
[16] = system: Streptococcus; assay: Group A Streptococcus viability loss, dose response, counter-screen for streptokinase expression inhibitor project, luminescence, BacTiterGlo (AID 1915); type: functional, organism-based;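 also: potency for reduction of bacterial viability or growth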
[17] = control 3'UTR Renilla luciferase suppression, dose response, counter-screen for Shn3 inhibitor project, cell-based, Clone20-Shn3RL, cherry-picked (AID 624133); type: functional
[18] = system: INS1; assay: beta cell apoptosis inhibitors, cytokine rescue, dose response, luminescence, retest (AID 449756); type: functional, cell-based; details: Rattus norvegicus;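 also: cell death triggered by IL-1 beta plus TNF-alpha plus IFN-gamma mixture; protective hits raise ATP signal compared with cytokine alone wells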
[19] = target: Nonstructural protein 1 (Influenza A virus, UniProt Q194T2); type: functional, Influenza A virus (A/California/07/2009(H1N1))
Sequence of Nonstructural protein 1 (Q194T2 whole entry): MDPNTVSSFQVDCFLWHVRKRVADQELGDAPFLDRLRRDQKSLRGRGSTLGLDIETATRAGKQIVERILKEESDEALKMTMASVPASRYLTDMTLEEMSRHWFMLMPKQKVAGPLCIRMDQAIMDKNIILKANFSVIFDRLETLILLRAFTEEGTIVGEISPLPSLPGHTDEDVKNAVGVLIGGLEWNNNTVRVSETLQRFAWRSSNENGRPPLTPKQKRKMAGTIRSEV

[20] = system: Streptococcus sp. 'group A'; assay: growth inhibition of control SK(-) GAS strain, dose response, counter-screen for streptokinase expression inhibitor project, luminescence, kanamycin, BacTiterGlo, confirmation (AID 1900); type: functional, organism-based
[21] = target: Heat shock protein HSP 90-alpha (Homo sapiens, UniProt P07900); type: functional, organism-based
[22] = target: T2, Estrogen receptor beta (Homo sapiens, UniProt Q92731); assay: ERβ–SRC-3 coactivator interaction inhibitors, confirmation, orthogonal assay, biochemical, ELISA, streptavidin-HRP readout (AID 1060)
T2 sequence (Q92731 whole entry): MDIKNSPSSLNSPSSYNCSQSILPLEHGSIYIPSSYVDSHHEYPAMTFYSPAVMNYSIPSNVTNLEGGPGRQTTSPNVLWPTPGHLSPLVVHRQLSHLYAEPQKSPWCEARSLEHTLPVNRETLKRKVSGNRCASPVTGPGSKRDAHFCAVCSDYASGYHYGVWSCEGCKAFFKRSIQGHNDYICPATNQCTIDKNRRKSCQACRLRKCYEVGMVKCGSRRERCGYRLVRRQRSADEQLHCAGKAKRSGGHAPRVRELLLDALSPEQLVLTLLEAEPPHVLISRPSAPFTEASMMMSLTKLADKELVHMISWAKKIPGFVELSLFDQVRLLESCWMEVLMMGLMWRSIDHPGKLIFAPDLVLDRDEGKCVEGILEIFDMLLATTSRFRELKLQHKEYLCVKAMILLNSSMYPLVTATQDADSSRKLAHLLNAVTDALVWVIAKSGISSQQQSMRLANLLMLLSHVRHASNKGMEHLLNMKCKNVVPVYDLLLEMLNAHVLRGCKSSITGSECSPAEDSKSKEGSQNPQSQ

[23] = target: T2, Estrogen receptor beta
[24] = target: T3, Streptokinase A (Streptococcus pyogenes serotype M1, UniProt P10520); assay: S. pyogenes streptokinase expression inhibitors, potency, dose response, plasminogen activation absorbance, OD405 (AID 1914); type: functional, Streptococcus pyogenes M1 GAS;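 also: secreted streptokinase activity via plasminogen activation per viability signal from cell pellet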
T3 sequence (P10520 whole entry): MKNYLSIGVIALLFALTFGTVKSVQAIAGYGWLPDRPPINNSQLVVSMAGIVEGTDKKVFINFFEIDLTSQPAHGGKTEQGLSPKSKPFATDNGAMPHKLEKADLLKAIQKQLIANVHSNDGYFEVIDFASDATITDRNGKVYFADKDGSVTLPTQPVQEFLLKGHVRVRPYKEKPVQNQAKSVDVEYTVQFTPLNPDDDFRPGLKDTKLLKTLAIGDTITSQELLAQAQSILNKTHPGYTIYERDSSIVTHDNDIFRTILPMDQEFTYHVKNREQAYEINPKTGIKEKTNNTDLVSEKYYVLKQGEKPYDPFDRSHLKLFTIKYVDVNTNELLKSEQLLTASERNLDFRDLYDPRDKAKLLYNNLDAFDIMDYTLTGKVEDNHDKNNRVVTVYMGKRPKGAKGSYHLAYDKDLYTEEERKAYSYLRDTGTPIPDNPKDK

[25] = target: T4, X-box-binding protein 1 (Homo sapiens, UniProt P17861); type: functional, Cricetulus griseus;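 also: confirmatory dose-response counter-screen serving a CHOP assay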
T4 sequence (P17861 whole entry): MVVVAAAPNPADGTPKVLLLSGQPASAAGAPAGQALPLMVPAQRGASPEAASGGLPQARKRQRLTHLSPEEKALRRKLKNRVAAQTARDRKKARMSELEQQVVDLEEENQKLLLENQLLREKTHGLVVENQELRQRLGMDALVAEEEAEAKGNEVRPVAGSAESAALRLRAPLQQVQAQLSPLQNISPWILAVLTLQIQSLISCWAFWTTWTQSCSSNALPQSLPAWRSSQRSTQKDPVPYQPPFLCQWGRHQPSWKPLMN

[26] = target: T5, Microphthalmia-associated transcription factor (Homo sapiens, UniProt O75030); assay: TRPM1 promoter luciferase signal decrease, dose response, MITF inhibitor project, cell-based, SK-MEL-5, cherry-picked, set 3 (AID 493073); type: functional
T5 sequence (O75030 whole entry): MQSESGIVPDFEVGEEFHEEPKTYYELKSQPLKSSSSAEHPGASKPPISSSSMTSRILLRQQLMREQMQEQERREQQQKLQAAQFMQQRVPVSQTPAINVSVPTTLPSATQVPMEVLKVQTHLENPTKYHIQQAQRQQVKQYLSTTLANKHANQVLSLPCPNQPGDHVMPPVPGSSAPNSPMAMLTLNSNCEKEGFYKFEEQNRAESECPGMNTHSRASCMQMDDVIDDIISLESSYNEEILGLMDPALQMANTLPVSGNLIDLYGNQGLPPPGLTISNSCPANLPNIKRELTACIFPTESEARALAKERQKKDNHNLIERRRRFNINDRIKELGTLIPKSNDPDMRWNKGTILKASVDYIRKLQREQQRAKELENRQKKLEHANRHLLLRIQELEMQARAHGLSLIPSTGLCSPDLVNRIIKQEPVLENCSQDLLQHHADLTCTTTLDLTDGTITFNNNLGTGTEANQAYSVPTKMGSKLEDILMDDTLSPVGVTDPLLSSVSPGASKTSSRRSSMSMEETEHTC

With CCOc1ccc(C(=O)C(C)OC(=O)c2nc(Cl)ccc2Cl)cc1 (stereo unspecified) the IC50 [1] was > 20 µM (inactive).
With CC1(C)CC(=O)c2c(nc(SCC(=O)Nc3nsc(-c4ccccc4)n3)c(C#N)c2-c2ccccc2)C1 the EC50 [2] was 7.76 µM (active), the EC50 [3] was > 150 µM (not active) and the EC50 [4] was 35 µM (active). The EC50 [5] was > 120 µM (not active), the EC50 [6] was 0.596 µM (active) and the EC50 [7] was > 150 µM (not active). For the same molecule, the AC50 [8] was > 70 µM (inactive), the EC50 [9] was > 120 µM (not active) and the EC50 [10] was 13.4 µM (active).
In the case of O=C(CCN1C(=O)/C(=C/c2ccccc2Cl)SC1=S)NCCCN1CCOCC1, the IC50 [1] is reported as > 20 µM (inactive).
For Cc1ccc(-c2nnc(N3CCN(C(=O)COc4ccccc4)CC3)c3ccccc23)cc1, the AC50 [11] was 34.9 µM (active), the EC50 [12] was 4.54 µM (active) and the AC50 [13] was 13.9 µM (active). For the same molecule, the AC50 [14] was 31.6 µM (active).
In the case of O=C(/C=C/c1ccc(F)cc1)NC(=S)NNC(=O)c1cnccn1, the AC50 [15] is reported as > 70 µM (inactive), the EC50 [5] is reported as 11.7 µM (active) and the EC50 [16] is reported as 2.75 µM (active). The AC50 [17] was 2.01 µM (active), the AC50 [18] was 1.21 µM (active) and the AC50 [8] was 1.39 µM (active). The EC50 [9] was 10.5 µM (active), the IC50 [19] was 1.56 µM (active) and the EC50 [20] was 1.37 µM (active). For the same molecule, the AC50 [21] was 3.35 µM (active) and the EC50 [10] was > 120 µM (not active).
In the case of COc1ccc(NC(=O)CN(c2ccccc2)S(=O)(=O)N(C)C)cc1OC, the IC50 [22] is reported as > 109 µM (not active) and the IC50 [23] is reported as 10.1 µM (active).
For Cc1ccc(-c2nc3cc(NS(=O)(=O)c4ccc(C)cc4)ccc3o2)cc1, the EC50 [24] was 5.86 µM (active), the EC50 [16] was 18.1 µM (active) and the EC50 [20] was 5.82 µM (active). The “Absolute IC50 (XBP1)” value [25] was 10 µM.
For O=C(Nc1cc(-c2nc3ncccc3o2)ccc1Cl)c1ccc([N+](=O)[O-])o1, the AC50 [26] was 5.76 µM (active).
In the case of Cc1ccc(-n2c(O)nc3c(C(N)=O)nc(-c4ccc(C)o4)nc32)cc1, the “Absolute IC50 (XBP1)” value [25] is reported as 10 µM.
For N#C/C(=C\c1cccc(Oc2ccccc2)c1)C(=O)N1CCOCC1, the AC50 [21] was 8.82 µM (active).
For CCC1CCc2c(sc(NC(=O)c3ccoc3C)c2C(N)=O)C1 (stereo unspecified), the “Absolute IC50 (XBP1)” value [25] was 10 µM.
